# Columns and labels:
# [1] = target: T1, human SIRT5 (Homo sapiens, UniProt Q9NXA8); assay: PncA/GDH-coupled deacylation assay, SIRT5 activation (CPS1-succK537 substrate); type: biochemical; settings: for effect on SIRT5: 10 μM compound; for SIRT5 activation: 100 μM compound
# T1 construct: pET151D/Topo (Sirt3-114-380 and Sirt5-34-302); His tag (N, cleaved yes); made in house; host or cells: Escherichia coli
# T1 sequence (Q9NXA8 34-302): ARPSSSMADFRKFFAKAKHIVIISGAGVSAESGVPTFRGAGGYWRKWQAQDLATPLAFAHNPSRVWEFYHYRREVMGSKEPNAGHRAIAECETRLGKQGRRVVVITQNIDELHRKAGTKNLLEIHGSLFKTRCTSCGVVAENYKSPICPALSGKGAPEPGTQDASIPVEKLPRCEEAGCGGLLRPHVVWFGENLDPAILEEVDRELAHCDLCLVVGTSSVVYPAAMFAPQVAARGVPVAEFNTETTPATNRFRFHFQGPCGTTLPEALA
# Description: (§1) To avoid artifacts and other non-specific effects, instead of the “Fluor-de-Lys” (FdL) substrate, we used a PncA/GDH-coupled deacylation assay by measuring the NADPH oxidation to NADP^+ that relies on isoform-specific non-modified physiological acetyl or succinyl substrates [p53-acK381 for SIRT1, α-tubulin-[…] for SIRT2, acetyl-CoA synthetase 2 (ACS2)-acK642 for SIRT3, and CPS1-succK537 for SIRT5].[59] The assays were carried out using the 1,4-DHP derivatives 2a–n and 3a–d against SIRT3, including the prototype compounds 2 and 3 as positive controls.
# (§2) N-terminally his-tagged human sirtuins were expressed in Escherichia coli using constructs in pET15b (Sirt1) or pET151D/Topo (Sirt3-114-380 and Sirt5-34-302).[4],[59],[61] Sirt2-43-356 was expressed from a modified pET19b containing a TEV protease cleavage site and an N-terminal SUMO-tag.[59],[79] Proteins were expressed and purified as described elsewhere.[59],[61],[79]−[81] In brief, proteins were expressed in E. coli, crude extracts were cleared by centrifugation, and the proteins were affinity purified using NiNTA beads.
# (§3) Sirtuin deacylation activities were analyzed by using a coupled enzymatic assay as described in.[59],[82] For initial modulation screenings, substrate peptide specificity analysis, and compound titrations, 1.5 μM sirtuin was incubated with 50 μM substrate peptide and 100 μM NAD^+ in absence or presence of 10 μM, 100 μM or the indicated concentration of 1,4-DHP at a final DMSO concentration of 5%. For kinetic experiments, 1.5 μM sirtuin was incubated with saturating concentrations of either substrate peptide (0.4 mM) or NAD^+ (2 mM), with the second substrate’s concentration being varied in absence or presence of 200 μM 1,4-DHP at a final concentration of 5% DMSO. Potential 1,4-DHP effects on the coupled enzymes GDH and nicotinamidase were tested in control assays containing 50 μM NAM instead of the substrate peptide.
# [2] = target: T2, human SIRT2 (Homo sapiens, UniProt Q8IXJ6); assay: PncA/GDH-coupled deacylation assay, SIRT2 activation (α-tubulin-acK25 substrate); type: biochemical; settings: for effect on SIRT2: 10 μM compound; for SIRT2 activation: 100 μM compound
# T2 construct: Sirt2-43-356 was expressed from a modified pET19b; SUMO-tag (with TEV protease cleavage site) (N, cleaved yes); His tag (N, cleaved yes); made in house; host or cells: Escherichia coli
# T2 sequence (Q8IXJ6 43-356): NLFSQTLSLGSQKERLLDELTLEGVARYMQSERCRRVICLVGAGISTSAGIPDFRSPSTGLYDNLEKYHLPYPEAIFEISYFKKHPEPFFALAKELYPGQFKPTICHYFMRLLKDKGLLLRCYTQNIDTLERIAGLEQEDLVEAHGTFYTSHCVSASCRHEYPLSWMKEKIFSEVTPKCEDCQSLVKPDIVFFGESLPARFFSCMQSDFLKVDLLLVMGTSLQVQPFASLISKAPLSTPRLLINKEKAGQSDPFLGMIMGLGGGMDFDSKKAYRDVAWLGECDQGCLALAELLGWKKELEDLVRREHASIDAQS
# Description: as §1, §2, §3
# [3] = target: T3, human SIRT1 (Homo sapiens, UniProt Q96EB6); assay: PncA/GDH-coupled deacylation assay, SIRT1 activation (p53-acK381 substrate); type: biochemical; settings: for effect on SIRT1: 10 μM compound; for SIRT1 activation: 100 μM compound
# T3 construct: using constructs in pET15b (Sirt1); His tag (N, cleaved yes); made in house; host or cells: Escherichia coli
# T3 sequence (Q96EB6 1-747): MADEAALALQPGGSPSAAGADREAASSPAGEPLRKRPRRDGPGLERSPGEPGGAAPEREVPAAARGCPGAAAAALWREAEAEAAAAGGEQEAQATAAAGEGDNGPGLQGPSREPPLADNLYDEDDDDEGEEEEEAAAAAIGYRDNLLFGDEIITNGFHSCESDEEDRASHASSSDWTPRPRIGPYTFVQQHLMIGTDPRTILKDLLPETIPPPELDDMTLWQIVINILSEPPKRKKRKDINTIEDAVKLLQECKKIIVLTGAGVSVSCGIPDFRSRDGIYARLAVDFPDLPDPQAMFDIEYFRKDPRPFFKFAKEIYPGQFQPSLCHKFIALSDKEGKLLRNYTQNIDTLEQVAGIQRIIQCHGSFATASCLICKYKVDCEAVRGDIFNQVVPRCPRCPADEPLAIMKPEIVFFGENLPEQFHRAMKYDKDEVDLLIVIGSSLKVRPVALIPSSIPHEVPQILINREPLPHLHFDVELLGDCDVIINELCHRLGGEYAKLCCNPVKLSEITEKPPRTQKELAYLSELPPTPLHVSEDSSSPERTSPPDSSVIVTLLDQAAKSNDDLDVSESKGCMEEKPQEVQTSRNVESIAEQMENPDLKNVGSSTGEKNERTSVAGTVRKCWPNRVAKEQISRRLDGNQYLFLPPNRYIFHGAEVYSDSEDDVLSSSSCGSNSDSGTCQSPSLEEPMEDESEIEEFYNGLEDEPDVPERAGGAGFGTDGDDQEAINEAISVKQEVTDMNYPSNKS
# Description: as §1, §2, §3
# [4] = tested on: GDH activity in MDA-MB-231 cells; assay: GDH activity assay in lysates of treated MDA-MB-231 cells; type: cell-based, human; settings: 50 μM, 4 h
# Description: Selected compounds 3a–d were tested in triple-negative breast cancer MDA-MB-231 cells to evaluate their effects on SIRT3 physiological substrates. First, the effect on the activity of GDH (an established SIRT3 substrate activated through deacetylation[60]−[62]) was investigated by a coupled enzyme assay. […] These effects of SIRT3 activators clearly phenocopied those observed in the SIRT3-overexpressing MDA-MB-231 cells (SIRT3^+) (Figure 6).
# GDH activity in cells treated or not with the SIRT3 activators 3a–d and the reference compounds 2 and 3 was measured using a GDH activity assay kit (MAK099, Merck) following the manufacturer’s instructions. Briefly, 10^6 cells were lysed in 40 μL of GDH assay buffer and kept for 10 min in ice. Afterward, lysates were centrifuged to collect supernatants. Ten microliters of supernatant were added to 40 μL of GDH buffer and 100 μL of a mix containing GDH assay buffer, developer, and glutamate. The whole mix was transferred into a 96-well plate and incubated at 37 °C for 3 min. Finally, absorbance was read at 450 nm using a GloMax multi detection system (Promega, Milan, Italy). The absorbance of the assay buffer was subtracted from each experimental sample.
Structure (SMILES),effect on SIRT5 [1],SIRT5 activation [1] [%],effect on SIRT2 [2],SIRT2 activation [2] [%],effect on SIRT1 [3],SIRT1 activation [3] [%],effect on GDH activity in cell lysates [4],GDH activation [4]
"CCOC(=O)C1=CN(C(=O)c2cccc(OC)c2)C=C(C(=O)OCC)C1c1ccccc1 [Compound 3a, Diethyl 1-(3-methoxybenzoyl)-4-phenyl-1,4-dihydropyridine-3,5-dicarboxylate]",negligible effects,144,negligible effects,130,negligible effects,164,increase in GDH activity,
"CCOC(=O)C1=CN(C(=O)c2ccc(OC)c(OC)c2)C=C(C(=O)OCC)C1c1ccccc1 [Compound 3c, Diethyl 1-(3,4-dimethoxybenzoyl)-4-phenyl-1,4-dihydropyridine-3,5-dicarboxylate]",negligible effects,160,negligible effects,136,negligible effects,156,increase in GDH activity,
"CCOC(=O)C1=CN(C(=O)c2cc(OC)cc(OC)c2)C=C(C(=O)OCC)C1c1ccccc1 [Compound 3d, Diethyl 1-(3,5-dimethoxybenzoyl)-4-phenyl-1,4-dihydropyridine-3,5-dicarboxylate]",negligible effects,,negligible effects,,negligible effects,130,increase in GDH activity,around 175%

# — article PMC10388363, “Novel 1,4-Dihydropyridines as Specific Binders and Activators of SIRT3 Impair Cell Viability and Clonogenicity and Downregulate Hypoxia-Induced Targets in Cancer Cells” (Journal of Medicinal Chemistry, 2023)
